Measurements: patent US9056865B2, “Pyridine-2-derivatives as smoothened receptor modulators” (Pfizer Inc., priority 2010, dated 2015)

Experiments:
[1] = target: human Smo (Homo sapiens (Human), UniProt Q99835); assay: Smo radioligand competition binding assay; conditions: for inhibition at 0.05 µM: read-out: Smo % inh. @ 0.05 μM
Summary of the method: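 Membranes from HEK293 cells expressing surface human Smo 181-781 (40 μg protein/well) incubated 2 h at room temperature with test compound and tritiated Smo antagonist (3 nM), pH 7.5 Tris buffer; filtration and scintillation counting. Non-specific binding defined with 30 μM cold antagonist; IC50 from four-parameter sigmoidal fit.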

[2] = tested on: Gli-Luc/MEF cells; assay: Gli-Luc/MEF assay; assay type: cell-based, mouse; conditions: Shh-stimulated luciferase, 48 hours
Summary of the method: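 Mouse embryonic fibroblasts from Gli-Luc transgenic mice (luciferase under Gli response element) dosed with compounds (final […], 3-fold series), then stimulated with recombinant mouse Shh at final 2 μg/mL. After 48 h at 37 °C, luminescence read by Bright-Glo; IC50 from inhibition of Shh-induced signal.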

Sequence of human Smo (Q99835 181-787): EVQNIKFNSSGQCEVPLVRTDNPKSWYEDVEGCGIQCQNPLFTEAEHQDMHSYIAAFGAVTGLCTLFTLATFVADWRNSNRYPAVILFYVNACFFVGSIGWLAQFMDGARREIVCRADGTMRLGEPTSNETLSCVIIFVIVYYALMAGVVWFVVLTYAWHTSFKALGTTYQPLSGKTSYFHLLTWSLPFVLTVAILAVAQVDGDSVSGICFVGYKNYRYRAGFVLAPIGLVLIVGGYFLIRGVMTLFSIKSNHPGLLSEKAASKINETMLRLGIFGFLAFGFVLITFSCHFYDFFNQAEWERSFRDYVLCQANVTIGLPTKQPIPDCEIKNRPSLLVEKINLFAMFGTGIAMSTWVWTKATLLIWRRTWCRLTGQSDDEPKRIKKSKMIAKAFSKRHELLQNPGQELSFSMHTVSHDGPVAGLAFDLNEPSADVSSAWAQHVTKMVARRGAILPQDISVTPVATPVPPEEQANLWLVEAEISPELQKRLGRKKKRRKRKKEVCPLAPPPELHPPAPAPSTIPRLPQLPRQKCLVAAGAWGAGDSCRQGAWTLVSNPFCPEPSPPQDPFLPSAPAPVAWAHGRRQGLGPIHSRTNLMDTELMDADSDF

Row | Compound | IC50 [1] | inhibition at 0.05 µM ([1]; 0.05 μM test compound) | IC50 ([2]; Mus musculus, MEF) | Smo % inh. @ 0.05 μM ([1]; 0.05 μM test compound) | IC50 [2]
1 | O=S(=O)(CCO)NC1CCN(c2ccc(Cl)c(-c3ccccn3)n2)CC1 [Example A-126, N-[1-(3-chloro-2,2′-bipyridin-6-yl)piperidin-4-yl]-2-hydroxyethanesulfonamide] | 15.2 nM | 96.1% | 10.3 nM |  | 
2 | Cc1cnc(-c2cc(N3CCC(NS(=O)(=O)C4CC4)CC3)ncc2Cl)c(C)c1 [Example A-127, N-[1-(5′-chloro-3,5-dimethyl-2,4′-bipyridin-2′-yl)piperidin-4-yl]cyclopropanesulfonamide] | 11.5 nM | 97.8% | 5.03 nM |  | 
3 | CS(=O)(=O)CCC(=O)NC1CCN(c2ccc(Cl)c(-c3ccccn3)n2)CC1 [Example A-128, N-[1-(3-chloro-2,2′-bipyridin-6-yl)piperidin-4-yl]-3-(methylsulfonyl)propanamide] | 31.3 nM | 95% | 15.2 nM |  | 
4 | CN(C)CC(=O)NC1CCN(c2ccc(Cl)c(-c3ccccn3)n2)CC1 [Example A-129, N-(1-(3-chloro-[2,2′-bipyridin]-6-yl)piperidin-4-yl)-2-(dimethylamino)acetamide] | 54.3 nM | 88.4% | 8.12 nM |  | 
5 | O=C(CCO)NC1CCN(c2ccc(Cl)c(-c3ccccn3)n2)CC1 [Example A-130, N-[1-(3-chloro-2,2′-bipyridin-6-yl)piperidin-4-yl]-3-hydroxypropanamide] |  | 81.3% | 35.5 nM |  | 
6 | CC(C)(O)CC(=O)NC1CCN(c2ccc(Cl)c(-c3ccccn3)n2)CC1 [Example A-131, N-[1-(3-chloro-2,2′-bipyridin-6-yl)piperidin-4-yl]-3-hydroxy-3-methylbutanamide] | 30.5 nM | 92.7% | 20.7 nM |  | 
7 | CCS(=O)(=O)NC1CCN(c2ccc(Cl)c(-c3ccccn3)n2)CC1 [Example A-132, N-[1-(3-chloro-2,2′-bipyridin-6-yl)piperidin-4-yl]ethanesulfonamide] | 38.2 nM | 92% | 33.7 nM |  | 
8 | O=S(=O)(NC1CCN(c2ccc(Cl)c(-c3ccccn3)n2)CC1)C1CC1 [Example A-133, N-[1-(3-chloro-2,2′-bipyridin-6-yl)piperidin-4-yl]cyclopropanesulfonamide] |  | 94.3% | 11.7 nM |  | 
9 | Cc1cnc(-c2cc(N3CCC(S(C)(=O)=O)CC3)ncc2Cl)c(C)c1 [Example A-134, 5′-chloro-3,5-dimethyl-2′-[4-(methylsulfonyl)piperidin-1-yl]-2,4′-bipyridine] | 114 nM | 80.8% | 37.7 nM |  | 
10 | COCC(=O)NC1CCN(c2cc(-c3ncc(C)cc3C)c(Cl)cn2)CC1 [Example A-135, N-[1-(5′-chloro-3,5-dimethyl-2,4′-bipyridin-2′-yl)piperidin-4-yl]-2-methoxyacetamide] | 40 nM | 94% | 7.6 nM |  | 
11 | COCCS(=O)(=O)N1CCN(c2ccc(Cl)c(-c3ccccn3)n2)CC1 [Example A-136, 3-chloro-6-{4-[(2-methoxyethyl)sulfonyl]piperazin-1-yl}-2,2′-bipyridine] | 328 nM | 58.8% | 117 nM |  | 
12 | CS(=O)(=O)NC1CCN(c2ncc(Cl)c(-c3ccccn3)c2F)CC1 [Example A-138, N-(1-(5′-chloro-3′-fluoro-2,4′-bipyridin-2′-yl)piperidin-4-yl)methanesulfonamide] | 84.6 nM | 80.5% | 29.4 nM |  | 
13 | Cc1cnc(-c2c(Cl)cnc(N3CCC(NC(=O)CCS(C)(=O)=O)CC3)c2F)c(C)c1 [Example A-139, N-(1-(5′-chloro-3′-fluoro-3,5-dimethyl-2,4′-bipyridin-2′-yl)piperidin-4-yl)-3-(methylsulfonyl)propanamide] | 17.8 nM | 101% | 1.96 nM |  | 
14 | Cc1cnc(-c2nc(N3CCC(NC(=O)CO)CC3)ccc2Cl)c(C)c1 [Example A-140, N-[1-(3-chloro-3′,5′-dimethyl-2,2′-bipyridin-6-yl)piperidin-4-yl]-2-hydroxyacetamide] | 47.7 nM | 92% | 19.5 nM |  | 
15 | Cc1cnc(-c2ccnc(N3CCN(C(=O)CCS(C)(=O)=O)CC3)c2)c(C)c1 [Example A-141, 1-[4-(3,5-dimethyl-2,4′-bipyridin-2′-yl)piperazin-1-yl]-3-(methylsulfonyl)propan-1-one] | 11.6 nM | 96.3% | 8.42 nM |  | 
16 | Cc1cnc(-c2cc(N3CCN(C(=O)CCS(C)(=O)=O)CC3)ncc2F)c(C)c1 [Example A-142, 1-[4-(5′-fluoro-3,5-dimethyl-2,4′-bipyridin-2′-yl)piperazin-1-yl]-3-(methylsulfonyl)propan-1-one] | 20.4 nM | 92.7% | 16.6 nM |  | 

Row | Compound | IC50 [1] | inhibition at 0.05 µM ([1]; 0.05 μM test compound) | IC50 ([2]; Mus musculus, MEF) | Smo % inh. @ 0.05 μM ([1]; 0.05 μM test compound) | IC50 [2]
17 | Cc1cnc(-c2ccnc(N3CCC(NS(C)(=O)=O)CC3)c2)c(C)c1 [Example A-143, N-[1-(3,5-dimethyl-2,4′-bipyridin-2′-yl)piperidin-4-yl]methanesulfonamide] | 12.2 nM | 96.3% | 10.4 nM |  | 
18 | Cc1cc(F)cnc1-c1cc(N2CCC(NC(=O)CCS(C)(=O)=O)CC2)ncc1Cl [Example A-144, N-[1-(5′-chloro-5-fluoro-3-methyl-2,4′-bipyridin-2′-yl)piperidin-4-yl]-3-(methylsulfonyl)propanamide] | 29.8 nM | 91.3% | 16.6 nM |  | 
19 | Cc1cc(F)cnc1-c1cc(N2CCC(NC(=O)CN(C)C)CC2)ncc1Cl [Example A-145, N-[1-(5′-chloro-5-fluoro-3-methyl-2,4′-bipyridin-2′-yl)piperidin-4-yl]-N^2,N^2-dimethylglycinamide] | 66.2 nM | 88.9% | 11.3 nM |  | 
20 | Cc1cc(F)cnc1-c1cc(N2CCC(NC(=O)CC(C)(C)O)CC2)ncc1Cl [Example A-146, N-[1-(5′-chloro-5-fluoro-3-methyl-2,4′-bipyridin-2′-yl)piperidin-4-yl]-3-hydroxy-3-methylbutanamide] | 52.2 nM | 87.4% | 20.7 nM |  | 
21 | Cc1ccc(-c2nc(N3CCN(C(=O)CCS(C)(=O)=O)CC3)ccc2Cl)nc1 [Example A-147, 1-[4-(3-chloro-5′-methyl-2,2′-bipyridin-6-yl)piperazin-1-yl]-3-(methylsulfonyl)propan-1-one] |  | 94.7% | 14.4 nM |  | 
22 | Cc1cc(F)cnc1-c1cc(N2CCC(NS(=O)(=O)CCO)CC2)ncc1Cl [Example A-149, N-[1-(5′-chloro-5-fluoro-3-methyl-2,4′-bipyridin-2′-yl)piperidin-4-yl]-2-hydroxyethanesulfonamide] | 20.7 nM | 90.6% | 10.1 nM |  | 
23 | Cc1cc(F)cnc1-c1cc(N2CCN(S(=O)(=O)CCO)CC2)ncc1Cl [Example A-150, 2-{[4-(5′-chloro-5-fluoro-3-methyl-2,4′-bipyridin-2′-yl)piperazin-1-yl]sulfonyl}ethanol] | 80.9 nM | 76.9% | 29.5 nM |  | 
24 | Cc1cc(F)cnc1-c1cc(N2CCN(C(=O)CCS(C)(=O)=O)CC2)ncc1Cl [Example A-151, 1-[4-(5′-chloro-5-fluoro-3-methyl-2,4′-bipyridin-2′-yl)piperazin-1-yl]-3-(methylsulfonyl)propan-1-one] |  | 101% | 8.76 nM |  | 
25 | Cc1cc(F)cnc1-c1cc(N2CCN(S(=O)(=O)CC(C)(C)O)CC2)ncc1Cl [Example A-152, 1-{[4-(5′-chloro-5-fluoro-3-methyl-2,4′-bipyridin-2′-yl)piperazin-1-yl]sulfonyl}-2-methylpropan-2-ol] |  | 95.9% | 11.2 nM |  | 
26 | Cc1cc(F)cnc1-c1cc(N2CCC(NS(=O)(=O)CC(C)(C)O)CC2)ncc1Cl [Example A-153, N-[1-(5′-chloro-5-fluoro-3-methyl-2,4′-bipyridin-2′-yl)piperidin-4-yl]-2-hydroxy-2-methylpropane-1-sulfonamide] | 10.6 nM | 96.4% | 4.71 nM |  | 
27 | Cc1cc(F)cnc1-c1nc(N2CCC(NS(C)(=O)=O)CC2)ccc1Cl [Example A-154, N-[1-(3-chloro-5′-fluoro-3′-methyl-2,2′-bipyridin-6-yl)piperidin-4-yl]methanesulfonamide] | 29.2 nM | 94.3% | 39.5 nM |  | 
28 | COCCS(=O)(=O)N1CCN(c2cc(-c3ncc(C)cc3C)ccn2)CC1 [Example A-155, 2′-{4-[(2-methoxyethyl)sulfonyl]piperazin-1-yl}-3,5-dimethyl-2,4′-bipyridine] | 97 nM | 77.1% | 45 nM |  | 
29 | Cc1cnc(-c2ccnc(N3CCN(C(=O)CN4C[C@@H](C)O[C@@H](C)C4)CC3)c2)c(C)c1 [Example A-156, 1-[4-(3,5-dimethyl-2,4′-bipyridin-2′-yl)piperazin-1-yl]-2-[(2R,6S)-2,6-dimethylmorpholin-4-yl]ethanone] | 12.1 nM | 102% | 6.57 nM |  | 
30 | Cc1cnc(-c2ccnc(N3CCN(C(=O)CN4CCOCC4)CC3)c2)c(C)c1 [Example A-157, 1-[4-(3,5-dimethyl-2,4′-bipyridin-2′-yl)piperazin-1-yl]-2-(morpholin-4-yl)ethanone] | 14.8 nM | 101% | 3.58 nM |  | 
31 | N-[(3-endo)-8-(5′-chloro-3-methyl-2,4′-bipyridin-2′-yl)-8-azabicyclo[3.2.1]oct-3-yl]methanesulfonamide [Example A-124] | 100 nM |  |  | 79.9% | 25.3 nM
